The OligoGym collection
“And” between values parts separate entries of the source, which are not always exact repeats. Identical values can stand only once. After the bases stand the sugars from the 5' end (letter, count) and the backbone: PS all phosphorothioate, else s phosphorothioate and o phosphodiester by linkage. Methylation of C is not given here. e = 2'-O-(2-methoxyethyl) (MOE); k = constrained ethyl (cEt); d = 2'-deoxy (DNA)

Target: SOD1
Conditions: ASO

GGAATCCATGCAGGCCT (sugars e3 k2 d7 k2 e3, PS)
target mRNA inhibition (HepG2, 3 µM): 7%

GGACCTGCACTGGTACA (sugars e3 k2 d7 k2 e3, PS)
target mRNA inhibition (HepG2, 3 µM): 7%

GGATACATTTCTACAG (sugars kekeddddddddekek, linkages s1 o3 s8 o1 s2)
target mRNA inhibition (A431, 0.12 µM): 0% | target mRNA inhibition (A431, 0.6 µM): 0% | target mRNA inhibition (A431, 3 µM): 0% | target mRNA inhibition (A431, 15 µM): 14%

GGATACATTTCTACAGC (sugars e2 k2 d9 k2 e2, PS)
target mRNA inhibition (HepG2, 0.1875 µM): 44% | target mRNA inhibition (HepG2, 0.75 µM): 67% | target mRNA inhibition (HepG2, 3 µM): 89% | target mRNA inhibition (HepG2, 4 µM): 84% | target mRNA inhibition (HepG2, 12 µM): 94%

GGATACATTTCTACAGC (sugars e4 k1 d8 k1 e3, linkages s1 o3 s9 o1 s2)
target mRNA inhibition (A431, 0.062 µM): 8% | target mRNA inhibition (A431, 0.185 µM): 7% | target mRNA inhibition (A431, 0.556 µM): 30% | target mRNA inhibition (A431, 1.667 µM): 33% | target mRNA inhibition (A431, 5 µM): 66% | target mRNA inhibition (A431, 15 µM): 59% | target mRNA inhibition (SH-SY5Y, 0.062 µM): 9% | target mRNA inhibition (SH-SY5Y, 0.185 µM): 0% | target mRNA inhibition (SH-SY5Y, 0.556 µM): 12% | target mRNA inhibition (SH-SY5Y, 1.667 µM): 33% | target mRNA inhibition (SH-SY5Y, 5 µM): 65% | target mRNA inhibition (SH-SY5Y, 15 µM): 76%

GGATACATTTCTACAGC (sugars e5 d8 k2 e2, linkages s1 o3 s9 o1 s2)
target mRNA inhibition (A431, 0.062 µM): 2% | target mRNA inhibition (A431, 0.185 µM): 4% | target mRNA inhibition (A431, 0.556 µM): 15% | target mRNA inhibition (A431, 1.667 µM): 19% | target mRNA inhibition (A431, 5 µM): 37% | target mRNA inhibition (A431, 15 µM): 44% | target mRNA inhibition (SH-SY5Y, 0.062 µM): 0% | target mRNA inhibition (SH-SY5Y, 0.185 µM): 0% | target mRNA inhibition (SH-SY5Y, 0.556 µM): 12% | target mRNA inhibition (SH-SY5Y, 1.667 µM): 30% | target mRNA inhibition (SH-SY5Y, 5 µM): 56% | target mRNA inhibition (SH-SY5Y, 15 µM): 68%

GGATACATTTCTACAGCT (sugars e5 d8 e5, linkages s1 o3 s9 o2 s2)
target mRNA inhibition (A431, 0.12 µM): 0% | target mRNA inhibition (A431, 0.6 µM): 25% | target mRNA inhibition (A431, 3 µM): 29% | target mRNA inhibition (A431, 15 µM): 50% | target mRNA inhibition (HepG2, 0.222 µM): 38% | target mRNA inhibition (HepG2, 0.667 µM): 62% | target mRNA inhibition (HepG2, 2 µM): 82% | target mRNA inhibition (HepG2, 6 µM): 94%

GGCAAAATACAGGTCAT (sugars e3 k2 d7 k2 e3, PS)
target mRNA inhibition (HepG2, 3 µM): 39%

GGCCAATGATGCAATGGTCT (sugars e5 d10 e5, PS)
target mRNA inhibition (HepG2, 5 µM): 9%

GGCCACACCATCTTTGTCAG (sugars e5 d10 e5, PS)
target mRNA inhibition (HepG2, 5 µM): 23% and 5%

GGCGATCCCAATTACAC (sugars e2 k2 d9 k2 e2, PS)
target mRNA inhibition (HepG2, 4 µM): 66%

GGGCCTCAGACTACATC (sugars e2 k2 d9 k2 e2, PS)
target mRNA inhibition (HepG2, 4 µM): 58%

GGGTTTTTATTCACAGG (sugars e3 k2 d7 k2 e3, PS)
target mRNA inhibition (HepG2, 3 µM): 17%

GGTCATTGAAACAGACA (sugars e3 k2 d7 k2 e3, PS)
target mRNA inhibition (HepG2, 3 µM): 11%

GGTCCATTACTTTCCTT (sugars e3 k2 d7 k2 e3, PS)
target mRNA inhibition (HepG2, 3 µM): 18%

GGTTTTTATTCACAGGC (sugars e2 k2 d9 k2 e2, PS)
target mRNA inhibition (HepG2, 4 µM): 45% | target mRNA inhibition (HepG2, 5 µM): 57% | target mRNA inhibition (HepG2, 12 µM): 51%

GGTTTTTATTCACAGGC (sugars e3 k2 d7 k2 e3, PS)
target mRNA inhibition (HepG2, 3 µM): 22%

GTCATTGAAACAGACAT (sugars e3 k2 d7 k2 e3, PS)
target mRNA inhibition (HepG2, 3 µM): 23%

GTCCATTACTTTCCTTC (sugars e3 k2 d7 k2 e3, PS)
target mRNA inhibition (HepG2, 3 µM): 33%
